Reference: patent publication US20250221966A1, “RXFP1 AGONISTS” (BRISTOL-MYERS SQUIBB COMPANY, priority 2021, published 2025)

Each compound was assayed against T1, human RXFP1 (Homo sapiens, UniProt Q9HBX9) (assay: RXFP1 cAMP assay (hRXFP1 HEK293 cAMP assay, HTRF)). Conditions: HEK293 cells stably expressing human RXFP1, 30 min at room temperature, read-out: cAMP hRXFP1 HEK293 Assay EC50.
T1 construct: expressed in transfected cells
T1 sequence (Q9HBX9 1-757): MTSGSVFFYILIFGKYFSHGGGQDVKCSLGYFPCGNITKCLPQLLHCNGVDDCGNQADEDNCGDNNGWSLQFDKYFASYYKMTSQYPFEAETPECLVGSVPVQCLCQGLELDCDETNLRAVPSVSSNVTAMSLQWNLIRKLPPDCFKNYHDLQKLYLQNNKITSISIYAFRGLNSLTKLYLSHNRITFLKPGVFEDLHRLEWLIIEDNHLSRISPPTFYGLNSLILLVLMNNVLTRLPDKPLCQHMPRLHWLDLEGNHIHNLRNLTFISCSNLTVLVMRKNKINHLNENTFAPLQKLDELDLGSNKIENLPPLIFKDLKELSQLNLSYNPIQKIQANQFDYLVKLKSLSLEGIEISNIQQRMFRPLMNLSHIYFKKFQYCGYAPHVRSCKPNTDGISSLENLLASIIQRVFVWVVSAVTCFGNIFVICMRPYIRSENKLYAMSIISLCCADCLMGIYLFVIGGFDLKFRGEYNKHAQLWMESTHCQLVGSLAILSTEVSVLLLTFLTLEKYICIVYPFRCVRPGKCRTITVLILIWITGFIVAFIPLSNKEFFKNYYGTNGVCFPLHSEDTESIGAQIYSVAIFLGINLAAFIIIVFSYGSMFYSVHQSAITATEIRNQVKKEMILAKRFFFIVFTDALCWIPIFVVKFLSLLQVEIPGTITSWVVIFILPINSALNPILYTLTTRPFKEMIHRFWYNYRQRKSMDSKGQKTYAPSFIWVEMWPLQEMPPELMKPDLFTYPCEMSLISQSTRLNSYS
Assay type: cell-based
Procedure: RXFP1 Cyclic Adenosine Monophosphate (cAMP) Assays. […] Cells were dissociated and suspended in assay buffer. The assay buffer was HBSS buffer (with calcium and magnesium) containing 20 mM HEPES, 0.05% BSA, and 0.5 mM IBMX. Cells (3000 cells per well, except 1500 cell per well for HEK293 cells stably expressing human RXFP1) were added to 384-well Proxiplates (Perkin-Elmer). Cells were immediately treated with test compounds in DMSO (2% final) at final concentrations in the range of 0.010 nM to 50 μM. Cells were incubated for 30 min at room temperature. The level of intracellular cAMP was determined using the HTRF HiRange cAMP assay reagent kit (Cisbio) according to manufacturer's instructions. Solutions of cryptate conjugated anti-cAMP and d2 fluorophore-labelled cAMP were made in a supplied lysis buffer separately. Upon completion of the reaction, the cells were lysed with equal volume of the d2-cAMP solution and anti-cAMP solution. […] The potency and activity of a compound to […] cAMP production was then determined by fitting to a 4-parametric logistic equation from a plot of cAMP level versus compound concentrations.

SMILES	EC50
COc1ccc([C@H]2CO[C@@H]3[C@H]2OC[C@@H]3O)cc1C(=O)N[C@H]1[C@@H](C(=O)Nc2ccc(F)c(C(F)(F)F)c2)[C@H]2CC[C@@H]1/C2=C\C1CC1 [compound 560]	45.3 nM
COc1ccc(C2=NOC3CC(CO)CC23)cc1C(=O)N[C@H]1[C@@H](C(=O)Nc2ccc(F)c(C(F)(F)F)c2)[C@H]2CC[C@@H]1/C2=C\C(F)(F)F (stereo partly shown) [compound 478]	6.5 nM
COc1c(F)cc(C2=NOC3CC(CO)CC23)cc1C(=O)N[C@H]1[C@@H](C(=O)NC23CC(C#N)(C2)C3)[C@H]2CC[C@@H]1/C2=C\C1CC1 (stereo partly shown) [compound 775]	4.4 nM
COc1ccc(-c2cc(C(O)C(=O)O)ccc2F)cc1C(=O)N[C@@H]1C2CCC(/C2=C/C2CC2)[C@@H]1C(=O)Nc1ccc(F)c(C(F)(F)F)c1 (stereo partly shown) [compound 181]	6 nM
COc1ccc(C2=NOC3COCC23)cc1C(=O)N[C@H]1[C@@H](C(=O)N[C@H](CF)C2(C)CC2)[C@H]2CC[C@@H]1/C2=C\C1CC1 (stereo partly shown) [compound 771]	3.8 nM
COc1ccc(-c2cc(C(O)C(=O)O)ccc2F)cc1C(=O)NC1C2CCC(/C2=C/CCC(C)(C)C)C1C(=O)Nc1ccc(F)c(C(F)(F)F)c1 (stereo not shown) [compound 354]	11 nM
COc1ccc(-c2cc(C(NC(=O)Cc3ccccc3)C(=O)O)ccc2F)cc1C(=O)N[C@@H]1C2CCC(/C2=C/C(F)(F)F)[C@@H]1C(=O)Nc1ccc(F)c(C(F)(F)F)c1 (stereo partly shown) [compound 240]	1 nM
COc1cc(F)c(F)cc1C(=O)N[C@@H]1C2CCC(/C2=C/C2=CCOCC2)[C@@H]1C(=O)Nc1ccc(F)c(C(F)(F)F)c1 (stereo partly shown) [compound 42]	130 nM
COc1ccc(-c2cc(C(OC(=O)NCCC(F)(F)F)C(F)(F)F)ccc2F)cc1C(=O)N[C@@H]1C2CCC(/C2=C/C2CC2)[C@@H]1C(=O)Nc1ccc(F)c(C(F)(F)F)c1 (stereo partly shown) [compound 213]	2 nM
CNC(=O)OC(C(=O)NC)c1ccc(F)c(-c2ccc(OC)c(C(=O)N[C@@H]3C4CCC(/C4=C/C4CC4)[C@@H]3C(=O)Nc3ccc(F)c(C(F)(F)F)c3)c2)c1 (stereo partly shown) [compound 235]	1 nM
COc1cc(F)c(F)cc1C(=O)N[C@@H]1C2CCC(/C2=C/c2cccc(Cc3ccccc3)c2)[C@@H]1C(=O)Nc1ccc(F)c(C(F)(F)F)c1 (stereo partly shown) [compound 49]	200 nM
COc1ccc(C2CC3CN(C(=O)OC(C)(C)C)CC32)cc1C(=O)N[C@H]1[C@@H](C(=O)Nc2ccc(F)c(C(F)(F)F)c2)[C@H]2CC[C@@H]1/C2=C\C1CC1 (single isomer, unassigned) [compound 730]	263 nM
COc1ccc(C2=NOC(C(C)O)C2)cc1C(=O)N[C@H]1[C@@H](C(=O)Nc2ccc(F)c(C(F)(F)F)c2)[C@H]2CC[C@@H]1/C2=C\C1CC1 (single isomer, unassigned) [compound 509]	15.2 nM
COc1ccc(-c2cc(C(F)(F)F)ccc2F)cc1C(=O)N[C@@H]1C2CCC(/C2=C/C2CC(F)(F)C2)[C@@H]1C(=O)Nc1ccc(F)c(C(F)(F)F)c1 (stereo partly shown) [compound 289]	548 nM
COC(=O)C(NC(=O)C1CCOCC1)c1ccc(F)c(-c2ccc(OC)c(C(=O)N[C@@H]3C4CCC(/C4=C/C(F)(F)F)[C@@H]3C(=O)Nc3ccc(F)c(C(F)(F)F)c3)c2)c1 (stereo partly shown) [compound 247]	73 nM
COc1ccc(C2=NOC3C4CC(C(O)C4O)C23)cc1C(=O)N[C@H]1[C@@H](C(=O)Nc2ccc(F)c(C(F)(F)F)c2)[C@H]2CC[C@@H]1/C2=C\C1CC1 (single isomer, unassigned) [Example 448]	1.2 nM
COCC(=O)NC(C(=O)O)c1ccc(F)c(-c2ccc(OC)c(C(=O)N[C@@H]3C4CCC(/C4=C/C(F)(F)F)[C@@H]3C(=O)Nc3ccc(F)c(C(F)(F)F)c3)c2)c1 (stereo partly shown) [compound 243]	4 nM

SMILES	EC50
COc1ccc(C2=NOC(C)(CO)C2)cc1C(=O)N[C@H]1[C@@H](C(=O)Nc2ccc(F)c(C(F)(F)F)c2)[C@H]2CC[C@@H]1C2=CC1CC1 (single isomer, unassigned) [compound 480]	6.7 nM
O=C(N[C@H]1[C@@H](C(=O)Nc2ccc(F)c(C(F)(F)F)c2)[C@H]2CC[C@@H]1/C2=C\C1CC1)c1cc(C2=NOC3CC(CO)CC23)ccc1OCCCF (stereo partly shown) [compound 788]	4.3 nM
COc1ccc(C2CCCN2)cc1C(=O)N[C@@H]1C2CCC(C2=CC2CC2)[C@@H]1C(=O)Nc1ccc(F)c(C(F)(F)F)c1 (stereo partly shown) [compound 703]	1190 nM
COc1ccc(-c2ccc(C(CC(=O)O)C(F)(F)F)cc2F)cc1C(=O)N[C@H]1[C@@H](C(=O)Nc2ccc(F)c(C(F)(F)F)c2)[C@H]2CC[C@@H]1/C2=C\C1CCCC1 (stereo partly shown) [compound 892]	9.9 nM
COc1ccc(-c2cc(CO)on2)cc1C(=O)N[C@H]1[C@@H](C(=O)Nc2ccc(F)c(C(F)(F)F)c2)[C@H]2CC[C@@H]1/C2=C\C1CC1 [Example 423, (1R,2S,3R,4R,Z)-7-(cyclopropylmethylene)-N-(4-fluoro-3-(trifluoromethyl)phenyl)-3-(5-(5-(hydroxymethyl)isoxazol-3-yl)-2-methoxybenzamido)bicyclo [2.2.1]heptane-2-carboxamide]	28 nM
COc1ccc(-c2ccc(C(=O)O)cc2)cc1C(=O)N[C@H]1[C@@H](C(=O)Nc2ccc(F)c(C(F)(F)F)c2)[C@H]2CC[C@@H]1/C2=C/c1ccccc1 [compound 94]	400 nM
COc1ccc(C2=NOC3COCC23)cc1C(=O)N[C@H]1[C@@H](C(=O)N[C@H](C)c2ccccc2C(F)(F)F)[C@H]2CC[C@@H]1/C2=C\C1CC1 (stereo partly shown) [compound 510]	15.2 nM
COc1ccc(-c2ccnc(N3CCOCC3)c2F)cc1C(=O)N[C@H]1[C@@H](C(=O)Nc2ccc(F)c(C(F)(F)F)c2)[C@H]2CC[C@@H]1C2=C(C)C [compound 85]	130 nM
COc1ccc(-c2cc([C@H](OC(=O)NC3CCC3)C(F)(F)F)ccc2F)cc1C(=O)N[C@@H]1C2CCC(/C2=C/CC(C)C)[C@@H]1C(=O)Nc1ccc(F)c(C(F)(F)F)c1 (stereo partly shown) [compound 926]	2.8 nM
COc1ccc(-c2cc(C(OC(=O)NC(C)(C)C)C(=O)O)ccc2F)cc1C(=O)N[C@H]1[C@@H](C(=O)Nc2ccc(F)c(C(F)(F)F)c2)[C@H]2CC[C@@H]1/C2=C\C1CCCC1 (stereo partly shown) [compound 933]	0.9 nM
COc1ccc(C2=NO[C@H]3CC(CO)C[C@@H]23)cc1C(=O)N[C@H]1[C@@H](C(=O)Nc2ccc(F)c(C(F)(F)F)c2)[C@H]2CC[C@@H]1/C2=C\CC(C)(C)C (stereo partly shown) [compound 841]	4.7 nM
COc1cc(C)c(C2=NOC3CC(CO)CC23)cc1C(=O)N[C@H]1[C@@H](C(=O)Nc2ccc(F)c(C(F)(F)F)c2)[C@H]2CC[C@@H]1/C2=C\C1CC1 (stereo partly shown) [compound 740]	3.4 nM
COc1c(F)cc(C2=NOC3CC(CO)CC23)cc1C(=O)N[C@H]1[C@@H](C(=O)N[C@H](C)C2(C)CC2)[C@H]2CC[C@@H]1/C2=C\CC(O)C(F)(F)F (stereo partly shown) [compound 832]	3.6 nM
O=C(O)c1ccc(F)c(-c2ccc(OCCN3CCOCC3)c(C(=O)N[C@H]3[C@@H](C(=O)Nc4ccc(F)c(C(F)(F)F)c4)[C@H]4CC[C@@H]3/C4=C\C(F)(F)F)c2)c1 [Example 320, 6-fluoro-3′-(((1R,2R,3S,4R,Z)-3-((4-fluoro-3-(trifluoromethyl)phenyl)carbamoyl)-7-(2,2,2-trifluoroethylidene)bicyclo[2.2.1]heptan-2-yl)carbamoyl)-4′-(2-morpholinoethoxy)-[1,1′-biphenyl]-3-carboxylic acid]	1950 nM
COc1ccc(C23COC(C(=O)O)(C2)C3)cc1C(=O)N[C@H]1[C@@H](C(=O)Nc2ccc(F)c(C(F)(F)F)c2)[C@H]2CC[C@@H]1/C2=C\C(F)(F)F [Example 724, 4-(3-(((1R,2R,3S,4R,Z)-3-((4-fluoro-3-(trifluoromethyl)phenyl)carbamoyl)-7-(2,2,2-trifluoroethylidene)bicyclo[2.2.1]heptan-2-yl)carbamoyl)-4-methoxyphenyl)-2-oxabicyclo[2.1.1]hexane-1-carboxylic acid]	5000 nM
COc1cc(F)c(F)cc1C(=O)N[C@@H]1C2CCC(C2=C(C)C)[C@@H]1C(=O)Nc1cccc(S(=O)(=O)C(F)(F)F)c1 (stereo partly shown) [compound 55]	230 nM

Same assay, conditions: cAMP hRXFP1 HEK293 Assay EC50, HEK293 cells stably expressing human RXFP1, 30 min at room temperature

SMILES	EC50
CNC(=O)OC(C(=O)O)c1ccc(F)c(-c2ccc(OC)c(C(=O)N[C@@H]3C4CCC(/C4=C/C4CC4)[C@@H]3C(=O)Nc3ccc(F)c(C(F)(F)F)c3)c2)c1 (stereo partly shown) [Example 179]	5 nM
